Data taken from ChEMBL document CHEMBL1133736, “Modeling cyclooxygenase inhibition. Implication of active site hydration on the selectivity of ketoprofen analogues” (J Med Chem, 2000).
pIC50: −log10 of the molar value.

Tests used:
[1] = target: Prostaglandin G/H synthase 1 (Homo sapiens, UniProt P23219); experiment: Concentration required for 50% inhibition against Prostaglandin G/H synthase 1 from human
[2] = target: T1, Prostaglandin G/H synthase 2 (Homo sapiens, UniProt P35354); experiment: Concentration required for 50% inhibition against Prostaglandin G/H synthase 2 from human
T1 sequence (P35354 whole entry): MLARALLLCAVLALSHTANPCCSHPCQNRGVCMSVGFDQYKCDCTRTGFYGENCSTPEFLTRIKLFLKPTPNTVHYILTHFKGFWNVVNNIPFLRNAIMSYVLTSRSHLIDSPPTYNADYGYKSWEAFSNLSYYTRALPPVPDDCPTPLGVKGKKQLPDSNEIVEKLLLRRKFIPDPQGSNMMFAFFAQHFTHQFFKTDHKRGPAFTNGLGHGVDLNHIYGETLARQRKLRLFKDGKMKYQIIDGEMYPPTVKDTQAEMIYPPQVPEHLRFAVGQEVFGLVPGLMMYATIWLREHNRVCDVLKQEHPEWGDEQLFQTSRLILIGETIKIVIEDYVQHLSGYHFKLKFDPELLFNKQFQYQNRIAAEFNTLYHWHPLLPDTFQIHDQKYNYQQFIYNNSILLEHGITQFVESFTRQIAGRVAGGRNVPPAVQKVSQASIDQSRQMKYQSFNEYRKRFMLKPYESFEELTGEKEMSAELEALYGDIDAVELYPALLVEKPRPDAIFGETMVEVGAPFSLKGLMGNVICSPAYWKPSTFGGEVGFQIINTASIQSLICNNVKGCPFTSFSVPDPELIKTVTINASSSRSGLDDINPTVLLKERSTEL

Sequence of Prostaglandin G/H synthase 1 (P23219 whole entry): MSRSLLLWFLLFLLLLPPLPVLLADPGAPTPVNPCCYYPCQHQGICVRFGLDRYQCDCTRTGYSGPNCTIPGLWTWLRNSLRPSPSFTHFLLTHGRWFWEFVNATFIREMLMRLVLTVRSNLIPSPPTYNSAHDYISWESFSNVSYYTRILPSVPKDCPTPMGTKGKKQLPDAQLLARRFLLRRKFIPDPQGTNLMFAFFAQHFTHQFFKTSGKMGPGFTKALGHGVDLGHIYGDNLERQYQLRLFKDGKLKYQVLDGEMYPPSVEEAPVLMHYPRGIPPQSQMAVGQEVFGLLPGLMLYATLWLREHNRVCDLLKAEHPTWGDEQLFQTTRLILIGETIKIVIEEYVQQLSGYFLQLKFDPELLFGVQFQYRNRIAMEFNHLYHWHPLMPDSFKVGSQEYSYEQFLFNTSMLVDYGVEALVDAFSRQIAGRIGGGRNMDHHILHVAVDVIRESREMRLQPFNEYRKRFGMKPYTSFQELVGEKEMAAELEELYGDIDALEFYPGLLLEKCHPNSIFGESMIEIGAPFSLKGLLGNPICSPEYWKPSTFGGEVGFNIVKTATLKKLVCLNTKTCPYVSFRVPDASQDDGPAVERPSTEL

Row | pIC50 [1] | pIC50 [2] | Compound
1 | 7.38 |  | COc1ccc(C(=O)c2ccccc2)cc1C(C)C(=O)O (stereo not drawn)
2 | 7.29 | 6.52 | CC(C(=O)O)c1cc(C(=O)c2ccccc2)ccc1O (stereo not drawn)
